The record followed here is patent EP0398425A1, “Antirhinoviral piperidinyl, pyrrolidinyl and piperazinyl alkylphenol ethers” (JANSSEN PHARMACEUTICA N.V., priority 1989, dated 1990).

Values after ≈ are worked out from the molar mass of the structure shown.

The test system of assay [1] is Human Rhinovirus serotypes HRV- 2,-29,-39,-85,-9,-15,-51,-59,-63,-89,-41. Kind of assay: Picornavirus Minimal Inhibitory Concentration Test (cytopathic effect reduction assay), first panel of rhinoviruses. The assay is classed as cell-based. The note with it: Human rhinovirus sp.; medium value of the IC50-values of all serotypes of the first panel; Ohio Hela cells, 3 to 5 days at 33°C; IC50 = concentration protecting 50% of the cells from cytopathic effects; read-out: Med₁. On the procedure:
(§1) The Minimal Inhibitory Concentration of the compounds of the present invention against the Human Rhinovirus strains (HRV) -2,-9,-14,-15,-29,-39,-41,-42,-45,-51, -59, -63,-70,-72,-85,-86 and -89 was determined by a standard cytopathic effect reduction assay as follows. To each of the ninty six (96) wells of a microtiter 96 well tissue culture plate there was added 60 µl of a Ohio Hela cell maintenance medium [Eagle's Basal medium supplemented with 5% Foetal Calf Serum (FCS)]. To two wells there was added 60 µl of an appropriate starting dilution of a compound of formula (I) and two-fold dilutions were made to cover a wide range of compound concentrations. Subsequently there were added 120 µl of an infectious solution of virus in Eagle's Basal Medium with 2% Hepes buffer, 2% FCS and 30 mM MgCl₂ to all wells except cell and compound controls. Said infectious virus solution having a TCID₅₀-value (Tissue Culture Infectious Dose) of about 100.
(§2) The TCID₅₀-value is the dose of viruses which initiates a cytopathic effect in 50% of the inoculated cells. 150 µl of the thus obtained virus-compound mixtures were then transferred to microtitre plates with subconfluent Ohio Hela Cells, grown in 100 µl of maintenance medium. Appropriate virus controls, cell controls and compound controls were included in each test. Plates were incubated for 3 to 5 days at 33°C in 5% CO₂ atmosphere. […] The IC₅₀-value for each virus-compound series was taken as the concentration in ng/ml that protected 50% of the cells from cytopathic effects with respect to the untreated controls. In the standard test procedure, the compounds were tested against two panels of rhinoviruses, a first panel consisting of serotypes HRV- 2,-29,-39,-85,-9,-15,-51,-59,-63,-89,-41 and the other panel consisting of HRV-42,-45,-14,-70,-72 and -86.
(§3) The IC₅₀-value for each rhinovirus serotype was determined, and the efficacy of each compound was determined in terms of the Med₁-value and Med₂-value, which is the medium value of the IC₅₀-values of all serotypes from the first and second panel respectively.
A general note: Protection from cytopathic effect is a common read-out in antiviral testing.

The subject of assay [2] is Human Rhinovirus serotypes HRV-42,-45,-14,-70,-72 and -86. Kind of assay: Picornavirus Minimal Inhibitory Concentration Test (cytopathic effect reduction assay), second panel of rhinoviruses. The format is cell-based. The note with it: Human rhinovirus sp., HRV42; medium value of the IC50-values of all serotypes of the second panel; Ohio Hela cells, 3 to 5 days at 33°C; IC50 = concentration protecting 50% of the cells from cytopathic effects; read-out: Med₂. On the procedure:
as §1, §2, §3

Turning to `CCOC(=O)c1ccc(OCCC2CCN(c3nc(C(=O)OCC)cs3)CC2)cc1` [Compound 6], the figures for the IC50 in assay [1] and in assay [2] were 0.031 µg/mL (≈ 0.0717 µM) and 0.4 µg/mL (≈ 0.925 µM), respectively.
For `CCOC(=O)c1ccc(OCCC2CCN(c3nnc(C)s3)CC2)cc1` [Compound 13, ethyl 4-[2-[1-(5-methyl-1,3,4-thiadiazol-2-yl)-4-piperidinyl]ethoxy]benzoate] the same measures were 0.01 µg/mL (≈ 0.0266 µM) and 0.035 µg/mL (≈ 0.0932 µM).
For `CCOC(=O)c1ccc(OCCC2CCN(C3=NS(=O)(=O)c4ccccc43)CC2)cc1` [Compound 14] the same measures were 0.053 µg/mL (≈ 0.12 µM) and 0.344 µg/mL (≈ 0.777 µM).
In the case of `CCOC(=O)c1ccc(OCCC2CCN(c3nnc(Br)s3)CC2)cc1` [Compound 17], the IC50 in assay [1] was found to be 0.006 µg/mL (≈ 0.0136 µM); in assay [2], 0.0705 µg/mL (≈ 0.16 µM).
In the same order, the values of `CCOC(=O)c1ccc(OCCC2CCN(c3nsc4ccccc34)CC2)cc1` [Compound 19, ethyl 4-[2-[1-(1,2-benzisothiazol-3-yl)-4-piperidinyl]ethoxy]benzoate] are 0.144 µg/mL (≈ 0.351 µM) and 0.25 µg/mL (≈ 0.609 µM).
As to `CCOC(=O)c1ccc(OCCN2CCN(c3nnc(Br)s3)CC2)cc1` [Compound 27], the IC50 in assay [1] was determined as 0.044 µg/mL (≈ 0.0997 µM); in assay [2], 0.011 µg/mL (≈ 0.0249 µM).
In the same order, the values of `CCOC(=O)c1ccc(OCCCN2CCN(c3nnc(Br)s3)CC2)cc1` [Compound 29] are 0.175 µg/mL (≈ 0.384 µM) and 0.037 µg/mL (≈ 0.0813 µM).
For `CCOC(=O)c1ccc(OCCN2CCN(c3nc(C(=O)OCC)cs3)CC2)cc1` [Compound 34, ethyl 2-[4-[2-[4-(ethoxycarbonyl)phenoxy]ethyl]-1-piperazinyl]-4-thiazolecarboxylate] the same measures were 0.088 µg/mL (≈ 0.203 µM) and 0.009 µg/mL (≈ 0.0208 µM).
As to `CCOC(=O)c1ccc(OCCCN2CCN(c3nncs3)CC2)cc1` [Compound 35], the IC50 in assay [1] was determined as 0.376 µg/mL (≈ 0.999 µM); in assay [2] it was 0.172 µg/mL (≈ 0.457 µM).
In the same order, the values of `CCOC(=O)c1ccc(OCCN2CCN(c3nc4ccccc4s3)CC2)cc1` [Compound 46, ethyl 4-[2-[4-(2-benzothiazolyl)-1-piperazinyl]ethoxy]benzoate] are 0.312 µg/mL (≈ 0.758 µM) and 0.027 µg/mL (≈ 0.0656 µM).
In the same order, the values of `CCOC(=O)c1ccc(OCCCN2CCN(c3nc(C(=O)OCC)cs3)CC2)cc1` [Compound 49] are 0.156 µg/mL (≈ 0.349 µM) and 0.097 µg/mL (≈ 0.217 µM).
In the same order, the values of `CCc1noc(-c2ccc(OCCC3CCN(c4nnc(Br)s4)CC3)cc2)n1` [Compound 61] are 0.011 µg/mL (≈ 0.0237 µM) and 0.244 µg/mL (≈ 0.525 µM).
